The first series relates to Plasmodium falciparum. As to the kind of experiment: Antimalarial activity against chloroquine-sensitive Plasmodium falciparum 3D7 by [3H]hypoxanthine uptake.
Conditions: not given
Format: functional, organism-based.
Regarding `Nc1ccc(S(=O)(=O)N[C@@H](Cc2ccccc2)[C@H](O)CN2CCN(Cc3ccc4c(c3)OCO4)CC2)cc1`, the IC50 turned out to be 4.6 µM.
Same read-out and setting: for `O=S(=O)(N[C@@H](Cc1ccccc1)[C@H](O)CN1CCN(Cc2ccc3c(c2)OCO3)CC1)c1ccc(Br)cc1` the value was 5.7 µM.

In the next series the test system is Plasmodium falciparum. As to the kind of experiment: Antimalarial activity against Plasmodium falciparum W2 by [3H]hypoxanthine uptake.
Conditions: not given
Type of series: functional, organism-based.
In turn, `Cc1ccc(S(=O)(=O)N[C@@H](Cc2ccccc2)[C@H](O)CN2CCN(Cc3ccc([N+](=O)[O-])cc3)CC2)cc1` had an IC50 greater than 90 µM.
On the same count and under the same terms, then `O=[N+]([O-])c1ccc(S(=O)(=O)N[C@@H](Cc2ccccc2)[C@H](O)CN2CCN(Cc3ccc4c(c3)OCO4)CC2)cc1`, with 44 µM.
Same read-out and setting: for `Nc1ccc(S(=O)(=O)N[C@@H](Cc2ccccc2)[C@H](O)CN2CCN(Cc3ccc4c(c3)OCO4)CC2)cc1` the value was 4.8 µM; for `Cc1ccc(S(=O)(=O)N[C@@H](Cc2ccccc2)[C@H](O)CN2CCN(Cc3ccc(Cl)cc3)CC2)cc1`, 35.1 µM.
On the same count and under the same terms, then `O=C(N[C@@H](Cc1ccccc1)[C@H](O)CN1CCN(Cc2ccc3c(c2)OCO3)CC1)c1ccc2c(c1)OCO2`, with 25.4 µM; and `Cc1ccc(S(=O)(=O)N[C@@H](Cc2ccccc2)[C@H](O)CN2CCN(Cc3ccc(F)cc3)CC2)cc1`, with 43 µM; and `Cc1c(O)cccc1C(=O)N[C@@H](Cc1ccccc1)[C@H](O)CN1CCN(Cc2ccc3c(c2)OCO3)CC1`, with 5.9 µM.
`Cc1ccc(S(=O)(=O)N[C@@H](Cc2ccccc2)[C@H](O)CN2CCN(Cc3ccccc3)CC2)cc1` showed an IC50 greater than 90 µM.
The same measure, in the same setting: then `O=S(=O)(N[C@@H](Cc1ccccc1)[C@H](O)CN1CCN(Cc2ccc3c(c2)OCO3)CC1)c1ccc(Br)cc1`, with 5.6 µM.

Tested on in the next series: not listed separately
The series can be described thus: Cytotoxicity against mouse J774 cells assessed as cell viability at 0.1 ug/mL after 24 hrs by MTT assay. Format: cell-based. Conditions: read-out: Activity.
Consider `Cc1ccc(S(=O)(=O)N[C@@H](Cc2ccccc2)[C@H](O)CN2CCN(Cc3ccc([N+](=O)[O-])cc3)CC2)cc1`, for which the viability at 24 h, 0.1 ug/mL amounted to 91%.
Same read-out and setting: for `O=[N+]([O-])c1ccc(S(=O)(=O)N[C@@H](Cc2ccccc2)[C@H](O)CN2CCN(Cc3ccc4c(c3)OCO4)CC2)cc1` the value was 100%.
With `Nc1ccc(S(=O)(=O)N[C@@H](Cc2ccccc2)[C@H](O)CN2CCN(Cc3ccc4c(c3)OCO4)CC2)cc1`, the viability at 24 h, 0.1 ug/mL turned out to be 100%.
The same measure, in the same setting: then `Cc1ccc(S(=O)(=O)N[C@@H](Cc2ccccc2)[C@H](O)CN2CCN(Cc3ccc(Cl)cc3)CC2)cc1`, with 100%; and `O=C(N[C@@H](Cc1ccccc1)[C@H](O)CN1CCN(Cc2ccc3c(c2)OCO3)CC1)c1ccc2c(c1)OCO2`, with 100%; and `Cc1ccc(S(=O)(=O)N[C@@H](Cc2ccccc2)[C@H](O)CN2CCN(Cc3ccc(F)cc3)CC2)cc1`, with 100%.
Same read-out and setting: then `Cc1c(O)cccc1C(=O)N[C@@H](Cc1ccccc1)[C@H](O)CN1CCN(Cc2ccc3c(c2)OCO3)CC1`, with 100%; and `Cc1ccc(S(=O)(=O)N[C@@H](Cc2ccccc2)[C@H](O)CN2CCN(Cc3ccccc3)CC2)cc1`, with 100%; and `O=S(=O)(N[C@@H](Cc1ccccc1)[C@H](O)CN1CCN(Cc2ccc3c(c2)OCO3)CC1)c1ccc(Br)cc1`, with 100%.

Tested on in the next series: not listed separately
The series can be described thus: Cytotoxicity against mouse J774 cells assessed as cell viability at 1 ug/mL after 24 hrs by MTT assay. Type of series: cell-based. The settings on record: read-out: Activity.
For the compound `Cc1ccc(S(=O)(=O)N[C@@H](Cc2ccccc2)[C@H](O)CN2CCN(Cc3ccc([N+](=O)[O-])cc3)CC2)cc1`, the viability at 24 h, 1 ug/mL turned out to be 100%.
Still for that read-out and setting: then `O=[N+]([O-])c1ccc(S(=O)(=O)N[C@@H](Cc2ccccc2)[C@H](O)CN2CCN(Cc3ccc4c(c3)OCO4)CC2)cc1`, with 100%; and `Nc1ccc(S(=O)(=O)N[C@@H](Cc2ccccc2)[C@H](O)CN2CCN(Cc3ccc4c(c3)OCO4)CC2)cc1`, with 100%.
On the same count and under the same terms, for `Cc1ccc(S(=O)(=O)N[C@@H](Cc2ccccc2)[C@H](O)CN2CCN(Cc3ccc(Cl)cc3)CC2)cc1` the value was 98%; for `O=C(N[C@@H](Cc1ccccc1)[C@H](O)CN1CCN(Cc2ccc3c(c2)OCO3)CC1)c1ccc2c(c1)OCO2`, 100%.
Still for that read-out and setting: then `Cc1ccc(S(=O)(=O)N[C@@H](Cc2ccccc2)[C@H](O)CN2CCN(Cc3ccc(F)cc3)CC2)cc1`, with 100%; and `Cc1c(O)cccc1C(=O)N[C@@H](Cc1ccccc1)[C@H](O)CN1CCN(Cc2ccc3c(c2)OCO3)CC1`, with 75%; and `Cc1ccc(S(=O)(=O)N[C@@H](Cc2ccccc2)[C@H](O)CN2CCN(Cc3ccccc3)CC2)cc1`, with 86%.
Regarding `O=S(=O)(N[C@@H](Cc1ccccc1)[C@H](O)CN1CCN(Cc2ccc3c(c2)OCO3)CC1)c1ccc(Br)cc1`, the viability at 24 h, 1 ug/mL amounted to 100%.

Tested on in a further series: not listed separately
As to the kind of experiment: Cytotoxicity against mouse J774 cells assessed as cell viability at 10 ug/mL after 24 hrs by MTT assay. Type of series: cell-based. Conditions: read-out: Activity.
Take `Cc1ccc(S(=O)(=O)N[C@@H](Cc2ccccc2)[C@H](O)CN2CCN(Cc3ccc([N+](=O)[O-])cc3)CC2)cc1`: the viability at 24 h, 10 ug/mL stood at 93%.
On the same count and under the same terms, for `O=[N+]([O-])c1ccc(S(=O)(=O)N[C@@H](Cc2ccccc2)[C@H](O)CN2CCN(Cc3ccc4c(c3)OCO4)CC2)cc1` the value was 100%; for `Nc1ccc(S(=O)(=O)N[C@@H](Cc2ccccc2)[C@H](O)CN2CCN(Cc3ccc4c(c3)OCO4)CC2)cc1`, 99%.
For the compound `Cc1ccc(S(=O)(=O)N[C@@H](Cc2ccccc2)[C@H](O)CN2CCN(Cc3ccc(Cl)cc3)CC2)cc1`, the viability at 24 h, 10 ug/mL turned out to be 90%.
Consider `O=C(N[C@@H](Cc1ccccc1)[C@H](O)CN1CCN(Cc2ccc3c(c2)OCO3)CC1)c1ccc2c(c1)OCO2`, for which the viability at 24 h, 10 ug/mL stood at 95%.
On the same count and under the same terms, for `Cc1ccc(S(=O)(=O)N[C@@H](Cc2ccccc2)[C@H](O)CN2CCN(Cc3ccc(F)cc3)CC2)cc1` the value was 92%.
Still for that read-out and setting: for `Cc1c(O)cccc1C(=O)N[C@@H](Cc1ccccc1)[C@H](O)CN1CCN(Cc2ccc3c(c2)OCO3)CC1` the value was 8%; for `Cc1ccc(S(=O)(=O)N[C@@H](Cc2ccccc2)[C@H](O)CN2CCN(Cc3ccccc3)CC2)cc1`, 88%.
Same read-out and setting: for `O=S(=O)(N[C@@H](Cc1ccccc1)[C@H](O)CN1CCN(Cc2ccc3c(c2)OCO3)CC1)c1ccc(Br)cc1` the value was 96%.

Tested on in another series: not listed separately
The series can be described thus: Cytotoxicity against mouse J774 cells assessed as cell viability at 100 ug/mL after 24 hrs by MTT assay. Type of series: cell-based. Conditions: read-out: Activity.
As for `Cc1ccc(S(=O)(=O)N[C@@H](Cc2ccccc2)[C@H](O)CN2CCN(Cc3ccc([N+](=O)[O-])cc3)CC2)cc1`, the viability at 24 h, 100 ug/mL came to 92%.
For the compound `O=[N+]([O-])c1ccc(S(=O)(=O)N[C@@H](Cc2ccccc2)[C@H](O)CN2CCN(Cc3ccc4c(c3)OCO4)CC2)cc1`, the viability at 24 h, 100 ug/mL was found to be 40%.
Consider `Nc1ccc(S(=O)(=O)N[C@@H](Cc2ccccc2)[C@H](O)CN2CCN(Cc3ccc4c(c3)OCO4)CC2)cc1`, for which the viability at 24 h, 100 ug/mL stood at 55%.
The same measure, in the same setting: for `Cc1ccc(S(=O)(=O)N[C@@H](Cc2ccccc2)[C@H](O)CN2CCN(Cc3ccc(Cl)cc3)CC2)cc1` the value was 22%; for `O=C(N[C@@H](Cc1ccccc1)[C@H](O)CN1CCN(Cc2ccc3c(c2)OCO3)CC1)c1ccc2c(c1)OCO2`, 61%; for `Cc1ccc(S(=O)(=O)N[C@@H](Cc2ccccc2)[C@H](O)CN2CCN(Cc3ccc(F)cc3)CC2)cc1`, 15%.
The same measure, in the same setting: for `Cc1c(O)cccc1C(=O)N[C@@H](Cc1ccccc1)[C@H](O)CN1CCN(Cc2ccc3c(c2)OCO3)CC1` the value was 8%.
On the same count and under the same terms, for `Cc1ccc(S(=O)(=O)N[C@@H](Cc2ccccc2)[C@H](O)CN2CCN(Cc3ccccc3)CC2)cc1` the value was 5%; for `O=S(=O)(N[C@@H](Cc1ccccc1)[C@H](O)CN1CCN(Cc2ccc3c(c2)OCO3)CC1)c1ccc(Br)cc1`, 5%.

Source of the values: ChEMBL document CHEMBL1153608, “Synthesis, antimalarial evaluation and molecular modeling studies of hydroxyethylpiperazines, potential aspartyl protease inhibitors, part 2” (Eur J Med Chem, 2009).
